Test results reported in US5066652A, “Thiomethyl and sulfinylmethyl derivatives having gastric acid antisectetory activity and pharmaceutical compositions containing them” (Chiesi Farmaceutici S.p.A., priority 1988, dated 1991).
Structures can show the parent of a compound that is named as a salt. Where two headings read alike, the source gives them in different places.

Tests used:
[1] = system: secretion of hydrochloric acid in the stomach (Shay ulcers); assay: Antisecretory activity - Shay ulcers (pylorus-ligated rat); format: in vivo; conditions: for Emax: Rattus norvegicus, α=1 represents 100% inhibition of gastric acid hypersecretion, read-out: α (approximate value of intrinsic activity); for Emax / ED50: 2 h; for ED50: rat, pylorus ligation, intraduodenal or intravenous; for PR (potency ratio in comparison with Omeprazole): ratio of mean ED50 on the 3 parameters of test compound to mean ED50 of omeprazole
Method: Antisecretory activity--Shay ulcers The gastric secretory inhibitory activity of the compounds of general formula (I) was determined in case of hypersecretion induced in the rat by ligation of gastroduodenal junction according to the procedure described by Shay (Shay H. et al, Gasgroenterology 5, 43-61, 1945). […] Thereafter, they were fasted for 24 hours, with water ad libitum, which period was sufficient to assure a good gastric emptying, then laparectomized under light ether anesthesia, so as to allow to effect a pylorus ligation as closer as possible to the gastroduodenal junction. Two hours after the ligation, the animals were killed by means of an ether excess and stomaches were removed. Gastric contents were recovered, after filtration through a gauze, and placed in graduated test-tubes and centrifuged at 3000×g for 15 minutes. The following parameters were evaluated on the surnatant: volume (ml); pH; free acidity by conversion of pH into H^+ μEq by means of Moore table (Ann. New York Acad. Sci. 1967, 866-874); titrable acidity, by titration of an amount with 0.02N NaOH, using phenolphtalein as the indicator. […] The results were expressed as percent inhibition of hypersecretion induced by pylorus ligation in the control rats. The obtained results are reported in table 3 as: ED50 (μmol/kg) calculated on the basis of the equation of the linear tract of does-effect curves obtained with the test compounds on volume, free and titrable acidities; […]

[2] = Toxicity after single administration (acute toxicity, oral); conditions: mouse, in vivo, mice, p.o., lethality 7 days after treatment, Probits method, read-out: Acute Toxicity (DL50 approx. mg/kg p.o.)
Method: Toxicity after single administration.
The tests have been carried out in IVA:NMRI (SPF) mice fasted with water ad libitum since 18 hours before treatment.
The compounds were administered by the oral route, at constant volume (10 ml/kg) in a 0.2% aqueous solution of Tween 80.
On the basis of lethality observed 7 days after the treatment, the approximate LD50 were determined according to the Probits method.

[3] = system: gastric hemorrhagic lesions induced by absolute ethanol; assay: Protection against gastric lesions induced in rats by necrotizing agents (absolute ethanol); format: in vivo; conditions: po; rat, gavage 30 minutes before 1 ml absolute ethanol; lesion score ≤ 2 considered protected
Method: Protection against gastric lesions induced in rats by necrotizing agents
The experiments were done on male rats weighing 260-300 g starved (with free access to water) for 18 hours.
Absolute ethanol was administered by gavage in the volume of 1 ml.
Test substances or the vehicle alone for the controls were given by gavage 30 minutes before the necrotizing agent in a 5% suspension of methylcellulose volume 2.5 ml kg^-1. One hour after administration of the necrotizing agent, the animals were killed and examined for lesions of the glandular portion of the gastric mucosa. The lesions presenting as blackish lesions grouped in patches of varying size, usually parallel to the major axis of the stomach, were scored according to the following arbitrary scale:
1=hyperemic mucosa, or up to 3 small patches;
2=from 4 to 10 small patches;
3=more than 10 small or up to 3 medium-sized patches;
4=from 4 to 6 medium-sized patches;
5=more than 6 medium-sized or up to 3 large patches;
6=from 4 to 6 large patches;
7=from 7 to 10 large patches;
8=more than 10 large patches or extensive necrotic zones.
"Small"0 was defined as up to 2 mm across (max diameter), "medium-sized" as between 2 and 4 mm across and "large" as more than 4 mm across.
Animals with gastric lesion score ≤ 2 were considered protected.
ED50 values were calculated according to Wilcoxon method.
The results are expressed in table 5.

[4] = system: secretion of hydrochloric acid in the stomach; assay: Lumen-perfused rat stomach in situ (histamine-induced hypersecretion); format: in vivo; conditions: for ED50: histamine 35 mcg/kg/min, 3 hours; for ED50 / α (intrinsic activity): intraduodenal; for α (intrinsic activity): histamine; for PR = potency ratio: in comparison with omeprazole
Method: Lumen-perfused rat stomach in situ The experiments were done according to Ghosh M. N. and Schild H. O. (Br. J. Pharmacol. 13, 54-61, 1958). […] After a midline abdominal incision, a PVC tube was inserted into the stomach via the esophagus and the stomach was perfused with saline (37° C.) at a rate of 1 ml/min. A second tube draining the pylorus was inserted through the abdominal wall for collection of gastric secretion. […] After equilibration of basal secretion an hypersecretion was induced by infusion of histamine 35 mcg/kg/min, through the femoral vein. […] Mean gastric output was determined for a 3 hours test period following drug administration. The last 30 minutes interval prior to dosing was used as a control. The dose-response relationship was established using the maximum inhibition obtained at each individual dose.

[5] = free acid output, read-out: ED50 free acid output
[6] = secretion volume, read-out: ED50 volume
[7] = titratable acid output, read-out: ED50 titratable acid output
[8] = read-out: ED50 free acid output
[9] = read-out: ED50 titratable acid output

| Compound | Emax [1] | ED50 [1, 5] | ED50 [1, 6] | ED50 [1, 7] | PR (potency ratio in comparison with Omeprazole) [1] | LD50 at 168 h [2] | ED50 [3] | ED50 [4, 8] | ED50 [4, 9] | α (intrinsic activity) [4] | PR = potency ratio [4] |
| --- | --- | --- | --- | --- | --- | --- | --- | --- | --- | --- | --- |
| Fc1cccc(-n2ccnc2SCc2nc3ccccc3[nH]2)c1 [XXI, 1-(3'-fluorophenyl)-2-[2'-(benzimidazolyl)methylthio]imidazole.2HCl] | 100% | 27 µmol/kg | 38 µmol/kg | 29 µmol/kg | 11,3 | ~900 mg/kg | 70 mg/kg |  |  |  |  |
| Fc1ccc(-n2ccnc2SCc2nc3ccccc3[nH]2)cc1 [XXIV] | 70 to 80% | 12.5 µmol/kg | 20.5 µmol/kg | 15.7 µmol/kg | 5,9 | ~2000 mg/kg | 47 mg/kg |  |  |  |  |
| [O-][S+](Cc1ccc2ccccc2n1)c1nc2cccnc2[nH]1 (stereo not shown) [LI, 2-(2'-quinolylmethylsulfinyl)imidazo-[4,5-b]-pyridine] | 100% | 4.8 µmol/kg | 10.3 µmol/kg | 5.6 µmol/kg | 2,5 | ~750 mg/kg | 20 mg/kg |  |  |  |  |
| COc1ccc(C)nc1CSc1ncnc2[nH]cnc12 [XLIII] | 100% | 83 µmol/kg | 89 µmol/kg | 81.6 µmol/kg | 30,6 |  | 60 mg/kg |  |  |  |  |
| Cn1ccnc1[S+]([O-])Cc1nc2cc(C(=O)c3ccccc3)ccc2[nH]1 (stereo not shown) [XV, 1-methyl-2-[2'-(5'-benzoyl)benzimidazolylmethylsulfinyl]imidazole] | 50 to 60% | 0.6 µmol/kg | 3 µmol/kg | 0.7 µmol/kg | 0,5 |  |  |  |  |  |  |
| COc1c(C)cnc(C[S+]([O-])c2nccn2C)c1C (stereo not shown) [XIV, 1-methyl-2-[2'-(3' ,5 '-dimethyl-4'-methoxy)pyridylmethylsulfinyl]imidazole] | 60% | 17.1 µmol/kg | 26.7 µmol/kg | 19.2 µmol/kg | 7,6 |  |  |  |  |  |  |
| CN/C(=N/CCSCc1nc[nH]c1C)NC#N [Cimetidine, reference compound] | 100% | 24.1 µmol/kg | 47.3 µmol/kg | 23.9 µmol/kg | 11,5 |  |  | 11.8 µmol/kg | 11.1 µmol/kg | 1 | 5.1 |
| [O-][S+](Cc1nc2ccccc2[nH]1)c1nccn1-c1ccc(F)cc1 (stereo not shown) [XXXIX, 1-(4'-fluorophenyl)-2-[2'-(benzimidazolyl)methylsulfinyl]-imidazole] | 80% | 139 µmol/kg | 300 µmol/kg | 165 µmol/kg | 72,8 |  |  |  |  |  |  |
| COc1ccc2[nH]c([S+]([O-])Cc3ncc(C)c(OC)c3C)nc2c1 (stereo not shown) [Omeprazole HCL, reference compound] |  |  |  |  |  | ~1400 mg/kg |  |  |  |  |  |
| CN(C)c1ccccc1CSc1nccn1-c1ccccc1 [XXVIII, 1-phenyl-2-[2'-(N,N-dimethylanilyl)methylthio]imidazole. 2HCl] | 100% | 40.6 µmol/kg | 55.4 µmol/kg | 44.9 µmol/kg | 17,0 |  |  | 31.4 µmol/kg | 19.9 µmol/kg | 1 | 11.3 |
| COc1ccnc(C[S+]([O-])c2nccn2C)c1 (stereo not shown) [XVI, 1-methyl-2-[2'-(4'-methoxypyridyl)methylsulfinyl]imidazole] | 40 to 60% | 0.3 µmol/kg | 2.3 µmol/kg | 0.3 µmol/kg | 0,3 |  |  |  |  |  |  |
| c1ccc2[nH]c(CSc3nc4cccnc4[nH]3)nc2c1 [XLVIII, 2-(2'-benzimidazolylmethylthio)imidazo-[4,5-b]-pyridine] | 50 to 60% | 164 µmol/kg | 522 µmol/kg | 235 µmol/kg | 110,9 |  |  |  |  |  |  |
| CN(C)c1ccccc1CSc1nccn1-c1ccc(F)cc1 [XXX] | 100% | 9.2 µmol/kg | 21.1 µmol/kg | 11.2 µmol/kg | 5,0 |  |  |  |  |  |  |
| Cn1ccnc1SCc1nc2cc(C(=O)c3ccccc3)ccc2[nH]1 [X, 1-methyl-2-[2'-(5'-benzoyl)-benzimidazolylmethylthio]imidazole. 2H3 PO4] | 70 to 80% | 2.7 µmol/kg | 10 µmol/kg | 2.7 µmol/kg | 1,9 | ~1400 mg/kg |  |  |  |  |  |
| CN(C)c1ccccc1CSc1nc2cncnc2[nH]1 [XLV, 8-[2'-(N,N-dimethylanilyl)methylthio]purine] | 100% | 17.8 µmol/kg | 31.2 µmol/kg | 19.3 µmol/kg | 8,2 |  |  |  |  |  |  |
| COc1ccnc(C[S+]([O-])c2nccn2-c2cccc(F)c2)c1C (stereo not shown) [XXXVII, 1-(3'-fluorophenyl)-2-[2'-(3'-methyl-4'-methoxypyridyl)methylsulphinyl]imidazole] | 60 to 80% | 73 µmol/kg | 80 µmol/kg | 80 µmol/kg | 28,1 |  |  |  |  |  |  |
| CN(C)c1ccccc1C[S+]([O-])c1nccn1-c1ccccc1F (stereo not shown) [XLI, 1-(2'-fluorophenyl)-2-[2'-(N,N-dimethylanilyl)methylsulfinyl]imidazole] | 100% | 42.3 µmol/kg | 124 µmol/kg | 61.9 µmol/kg | 27,6 |  |  |  |  |  |  |
| CN(C)c1ccccc1CSc1nccn1-c1ccccc1Cl [XXXI, 1-(2'-clorophenyl)-2-[2'-(N,N-dimethylanilyl)methylthio]imidazole] | 90% | 30.1 µmol/kg | 67.2 µmol/kg | 55.1 µmol/kg | 18,4 |  |  |  |  |  |  |
| COc1ccc(-n2ccnc2SCc2ccccc2N(C)C)cc1 [XXIX, 1-(4'-methoxyphenyl)-2-[2 '-(N,N-dimethylanilyl)methylthio]imidazole.2HCl] | 100% | 86.1 µmol/kg | 144 µmol/kg | 107 µmol/kg | 40,7 | > 2000 mg/kg |  |  |  |  |  |
| COc1ccnc(CSc2nccn2-c2cccc(F)c2)c1C [XX, 1-(3'-fluorophenyl)-2-[2'-(3'-methyl-4'-methoxypyridyl)methylthio]imidazole] | 70 to 80% | 65 µmol/kg | 80 µmol/kg | 65 µmol/kg | 25,3 |  | 50 mg/kg |  |  |  |  |
| c1ccc(N2CCOCC2)c(CSc2nc3cccnc3[nH]2)c1 [XLVII, 2-(2'-[1'-(4-morpholinyl)phenyl]methylthio)imidazo-[4,5-b]-pyridine] | 70 to 90% | 42.3 µmol/kg | 130 µmol/kg | 61.9 µmol/kg | 28,2 |  |  |  |  |  |  |
| COc1ccnc(CSc2nccn2-c2ccccc2)c1C [XXIII, 1-phenyl-2-[2'-(3'-methyl-4'-methoxypyridyl)methylthio]imidazole] | 70% | 125 µmol/kg | 125 µmol/kg | 110 µmol/kg | 43,4 |  |  |  |  |  |  |
